Source: patent publication US5532231A, “Antibacterial agent” (priority 1994, dated 1996)

Assays:
[1] = system: E. coli ESS; experiment: Bactericidal effect when bound to mouse tissues; type: cell-based, Escherichia coli; conditions: 4 μg TA or 20 μg Focusin, 5 h
Experimental: Two mice were sacrificed by exposure to ether. The bladder, eyes, intestines, lungs, heart, teeth, liver, spleen and kidneys were removed by dissection. Each experimental set consisted of three test tubes. A piece of each tissue type was placed in each of the three test tubes. The amount of tissue per tube were as follows: bladder 1/3, eye 1/2, intestine 1 cm, lung 1/2, heart 1/3, fang tooth 1/2, liver 1/3, spleen 1/3 and kidney 1/2. One test tube contained a control tissue which was treated only with the solvent used for dissolving the antibacterial agent, usually 50% ethanol. The second and third test tubes contained tissues were treated with 4 μg TA or 20 μg Focusin, respectively.
Following application of the antibacterial agent or the control solution, the tissues were allowed to dry in a hood for 30 mins., and then placed in the test tubes.
One milliliter of sterile saline was then added to each test tube and the tubes were then incubated with shaking (50 rpm) at 37° C. for one hour. The amount of antibacterial agent that was released to the saline was measured following chloroform extraction by the disc filter assay.
The tissues were then transferred to exponentially growing cultures of E. coli ESS in NB at a concentration of 10^5 cells/ml. Incubation was at 37° C. and continued for 5 hours, following which the number of viable cells was checked.

[2] = system: Staphylococcus aureas; experiment: Antimicrobial spectrum, liquid media, viable cell count; type: cell-based, Staphylococcus aureus; conditions: saturating concentrations
Experimental: (§1) Saturated solutions of TA and Focusin were prepared by adding 1.14 μg TA and 7 μg Focusin to 1 ml LB (final conc. of 1% ethanol). About 10^5 bacteria of various strains were then added. The control was bacteria in the same medium with no antibacterial agents. The bacteria were introduced at 37° C. with shaking at 100 rpm. When the control became turbid, viable cell count was performed on LB agar plates. Growth inhibition is presented as percentage of the no antibiotic control.

[3] = system: tested bacterial strains; experiment: Antimicrobial spectrum, overall; type: cell-based
Experimental: as §1

[4] = system: Klebsiella sp; experiment: Antimicrobial spectrum, liquid media, viable cell count; type: cell-based; conditions: saturating concentrations; hospital strain
Experimental: as §1

[5] = system: Klebsiella pneumoniae; experiment: as above; type: cell-based; conditions: saturating concentrations; hospital strain
Experimental: as §1

[6] = system: Klebsiella Gr47; experiment: as above; type: cell-based; conditions: saturating concentrations; hospital strain
Experimental: as §1

[7] = system: Bacillus subtilis; experiment: as above; type: cell-based; conditions: saturating concentrations
Experimental: as §1

[8] = system: Citrobacter diversus; experiment: as above; type: cell-based; conditions: saturating concentrations
Experimental: as §1

[9] = system: Helicobacter pilori; experiment: as above; type: cell-based; conditions: saturating concentrations
Experimental: as §1

[10] = system: Enterobacter; experiment: as above; type: cell-based; conditions: saturating concentrations
Experimental: as §1

[11] = system: Salmonella thyphimurium; experiment: as above; type: cell-based; conditions: saturating concentrations
Experimental: as §1

[12] = system: Pseudomonas aeruginosa; experiment: as above; type: cell-based; conditions: saturating concentrations
Experimental: as §1

[13] = system: Erwinia herbicola; experiment: as above; type: cell-based; conditions: saturating concentrations
Experimental: as §1

[14] = system: Providencia strautii; experiment: as above; type: cell-based; conditions: saturating concentrations
Experimental: as §1

[15] = system: Serratia marcescens; experiment: as above; type: cell-based; conditions: saturating concentrations
Experimental: as §1

[16] = system: Staphylococcus albus; experiment: as above; type: cell-based
Experimental: as §1

[17] = system: Proteus vulgaris; experiment: as above; type: cell-based; conditions: saturating concentrations
Experimental: as §1

[18] = system: E. coli ESS; experiment: as above; type: cell-based, Escherichia coli; conditions: saturating concentrations
Experimental: as §1

[19] = system: E. coli K-12; experiment: as above; type: cell-based, Escherichia coli; conditions: saturating concentrations
Experimental: as §1

CCCC1OC(=O)C(C)CC(C)CCCCC(=O)CCCC(CC)CCCC(COC)CCC(O)C(O)CC(O)CNC1=O (stereo not drawn) [Focusin]
Inhibition % by the treated tissue ([1]; bladder): 100% | Inhibition % by the treated tissue ([1]; heart): 90% | Inhibition % by the treated tissue ([1]; intestine): 100% | Inhibition % by the treated tissue ([1]; kidney): 100% | Inhibition % by the treated tissue ([1]; liver): 94% | Inhibition % by the treated tissue ([1]; lungs): 100% | Inhibition % by the treated tissue ([1]; spleen): 100% | Inhibition % by the treated tissue ([1]; teeth): 100% | killing [2]: 100% | antibacterial activity spectrum (in words) [3]: broad spectrum antibacterial activity against both Gram-positive and Gram-negative bacteria | killing [4]: 60% | killing [5]: 96% | killing [6]: 100% | killing [7]: 100% | killing [8]: 100% | killing [9]: 100% | killing [10]: 100% | killing [11]: 40% | killing [12]: 0% | killing [13]: 100% | killing [14]: 100% | killing [15]: 67% | incubation time after which the strain began to show sensitivity ([16]; saturating concentrations): > 46 h | killing ([16]; saturating concentrations (Focusin), on the 46th hour): 73% | killing [17]: 90% | killing [18]: 100% | killing [19]: 100%
